From patent US8648099B2 (Hoffmann-La Roche Inc., priority 2011, dated 2014)

Tests used:
ABCA1 protein = test: Detection of upregulation of ABCA1 protein in cells (ApoA-I binding, high content imaging); type: cell-based; settings: THP-1 macrophage cells; for % increase of ABCA1 at 3 μM: compound at 3 μM, 24 hrs; for EC50: 24 hrs compound incubation, read-out: EC50 [μM] ABCA1 protein increasing efficacy
Description: The ability of compounds of the invention to increase the level of ABCA1 protein is determined in replicate cultures of THP-1 macrophage cells in 96-well microplates. Cells are plated at an initial density of 100,000 cells/well in 100 μl medium and differentiated to adherent macrophages with the addition of PMA (100 nM) for 68 hrs in 10% fetal bovine serum, 3 μl/L of b-mercaptoethanol, RPMI-1640 medium. Then, cells are incubated with RPMI-1640 medium containing 1% FCS, 25 μg/ml acetylated LDL, for 24 hours at 37° C. Following incubation with acetylated LDL, cells are washed twice with 50 μl PBS and incubated with 100 μl of RPMI-1640 medium containing the compound of interest solubilized in DMSO for an additional 24 hrs. The final DMSO concentration in presence of cells is maintained at 0.5%. ApoA-I binding assay using High Content Image Analysis is initiated by replacing with fresh medium, RPMI without Phenol Red, 0.2% BSA containing AlexaFluor®647 labeled ApoA-I for 2 h/37° C./5% CO2. Then, cells are fixed with 4% Formaldehyde in PBS (15 min, RT). Following Nuclei are stained with Hoechst solution (3 μM PBS) and Cytoplasm with Cell Mask Blue (2 μg/ml PBS), 15 min, RT. Finally the stained cells are fixed with a second round of formaldehyde treatment. Fixed stained cells are washed and kept in PBS at 4° C. and can be read immediately until one month after preparation.
The Alexa Fluor 647-labeled Apolipoprotein A-I (20 nM) was prepared as follows: Human recombinant Apolipoprotein A-I (ApoA-I) was exchanged to a buffer of 0.02 M NaHCO3 at pH 8.2 on an NAP desalting column (GE Healthcare) and brought to a concentration to 40 μM (1.13 mg/ml) by adjustment with the same buffer. The ApoA-I was fluorescently labeled by incubation with Alexa Fluor carboxylic acid succimidyl ester (Alexa Fluor 647, Invitrogen A-20006) at a 2:1 molar ratio (Alexa to ApoA-I) for 1 h under shaking at RT. The remaining unconjugated label was removed by buffer exchange to 0.02M NaHCO3 at pH 8.2.
Imaging and data collection were performed on an OPERA confocal microplate imaging reader using a 20× water immersion objective and UV360 or 405 laser to identify the cell nuclei and a 635 laser to identify the fluorescent ApoA-I. Eight fields of view are captured per well. Image capture and analysis was performed with the Acapella software. Background fluorescence detected in control wells without ApoA-I was subtracted.
Using XLfit3 program (ID Business Solutions Ltd. UK), the model 205 for Dose Response One Site is used to calculate the EC50 values. […] More particularly, the compounds of the present invention have EC50 values in a range of 0.1 μM to 3 μm.

human CB1 receptor = target: T1, human CB1 receptor (Homo sapiens, UniProt P21554); test: CB1 receptor affinity ([3H]-CP-55,940 displacement, HEK cell membranes); type: binding; settings: displacement of [3H]-CP-55,940 at 10 μM; read-out: CB1 receptor affinity [% inhibition @ 10 μM]
T1 construct: expressed in transfected cells; host or cells: human embryonic kidney (HEK) cells, Semliki Forest Virus system, membrane preparations
T1 sequence (P21554 whole entry): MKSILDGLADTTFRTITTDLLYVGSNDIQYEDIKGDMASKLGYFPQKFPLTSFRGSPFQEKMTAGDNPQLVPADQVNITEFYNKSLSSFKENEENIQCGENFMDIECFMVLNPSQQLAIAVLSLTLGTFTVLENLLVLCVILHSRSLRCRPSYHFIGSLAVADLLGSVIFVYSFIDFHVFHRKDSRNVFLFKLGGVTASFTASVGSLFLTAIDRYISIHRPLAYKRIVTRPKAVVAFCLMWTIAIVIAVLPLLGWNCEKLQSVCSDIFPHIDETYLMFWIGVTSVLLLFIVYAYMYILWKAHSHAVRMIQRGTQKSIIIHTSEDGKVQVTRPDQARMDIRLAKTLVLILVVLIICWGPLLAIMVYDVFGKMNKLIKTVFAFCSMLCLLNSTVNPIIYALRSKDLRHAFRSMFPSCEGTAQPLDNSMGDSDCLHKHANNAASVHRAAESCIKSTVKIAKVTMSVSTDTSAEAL
Description: (§1) The affinity of the compounds of the invention for cannabinoid receptors was determined using membrane preparations of human embryonic kidney (HEK) cells in which the human CB1 receptor is transiently transfected using a Semliki Forest Virus system in conjunction with [3H]-CP-55,940 as radioligand. After incubation of freshly prepared cell membrane preparation with the [^3H]-ligand, with or without addition of compounds of the invention, separation of bound and free ligand was performed by filtration over glass fiber filters. Radioactivity on the filter was measured by scintillation counting.
(§2) The ability of the compounds to displace the radioligand [^3H]-CP-55,940 was measured at a concentration of 10 μM and values provided as [% inhibition @ 10 μM] both for the CB1 and CB2 receptor assay, The lower % inhibition is, the lower the likelihood of side effects based on CB1 or CB2 receptor inhibition is.

human CB2 receptor = target: T2, human CB2 receptor (Homo sapiens, UniProt P34972); test: CB2 receptor affinity ([3H]-CP-55,940 displacement, HEK cell membranes); type: binding; settings: displacement of [3H]-CP-55,940 at 10 μM
T2 construct: expressed in transfected cells; host or cells: human embryonic kidney (HEK) cells, Semliki Forest Virus system, membrane preparations
T2 sequence (P34972 whole entry): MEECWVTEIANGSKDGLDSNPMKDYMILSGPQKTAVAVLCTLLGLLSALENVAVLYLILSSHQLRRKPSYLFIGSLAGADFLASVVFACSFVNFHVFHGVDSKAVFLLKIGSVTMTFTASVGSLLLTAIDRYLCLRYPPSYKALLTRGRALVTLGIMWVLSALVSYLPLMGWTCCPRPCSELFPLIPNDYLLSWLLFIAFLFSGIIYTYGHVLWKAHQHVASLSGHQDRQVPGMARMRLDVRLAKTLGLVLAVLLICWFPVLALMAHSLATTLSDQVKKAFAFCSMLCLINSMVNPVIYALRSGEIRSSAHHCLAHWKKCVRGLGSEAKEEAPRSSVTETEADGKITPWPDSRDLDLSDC
Description: as §1, with “cannabinoid CB2” for “cannabinoid”, “CB2” for “CB1”, “[^3H]-CP-55,940” for “[3H]-CP-55,940”
as §2

In the case of O=C(NN1CCCC1)c1cnc(OCC(F)(F)F)c(C2CCCCC2)c1 [Example 21, 5-cyclohexyl-N-(pyrrolidin-1-yl)-6-(2,2,2-trifluoroethoxy)-3-pyridinecarboxamide], the “% increase of ABCA1 at 3 μM” value (ABCA1 protein) is reported as >45%@ 3 μM, the inhibition at 10 µM (human CB1 receptor) is reported as 39% and the inhibition at 10 µM (human CB2 receptor) is reported as -17%.

CN(NC(=O)c1cnc(OCC(F)(F)F)c(C2CCCCC2)c1)c1ccc(Cl)nn1 [Example 22, N′-(6-chloropyridazin-3-yl)-5-cyclohexyl-N′-methyl-6-(2,2,2-trifluoroethoxy)-3-pyridinecarboxylic acid hydrazide] was tested, and the EC50 (ABCA1 protein) was 0.98 µM, the inhibition at 10 µM (human CB1 receptor) was 28% and the inhibition at 10 µM (human CB2 receptor) was -9%.

With COC[C@@H]1CCCN1NC(=O)c1cnc(OCC(F)(F)F)c(C2CCCCC2)c1 [Example 23, 5-cyclohexyl-N—((S)-2-methoxymethyl-pyrrolidin-1-yl)-6-(2,2,2-trifluoro-ethoxy)-3-pyridinecarboxamide] the “% increase of ABCA1 at 3 μM” value (ABCA1 protein) was >45%@ 3 μM, the inhibition at 10 µM (human CB1 receptor) was 39% and the inhibition at 10 µM (human CB2 receptor) was 17%.

In the case of O=C(NN1CCC(CCO)CC1)c1cnc(OCC(F)(F)F)c(-c2ccc(Cl)cc2)c1 [Example 24, 5-(4-chlorophenyl)-N-(4-(2-hydroxyethyl)piperidin-1-yl)-6-(2,2,2-trifluoroethoxy)-3-pyridinecarboxamide], the “% increase of ABCA1 at 3 μM” value (ABCA1 protein) is reported as >45%@ 3 μM, the inhibition at 10 µM (human CB1 receptor) is reported as 45% and the inhibition at 10 µM (human CB2 receptor) is reported as -8%.

O=C(NN1CCN(CCO)CC1)c1cnc(OCC(F)(F)F)c(-c2ccc(Cl)cc2)c1 [Example 25, 5-(4-chlorophenyl)-N-(4-(2-hydroxyethyl)piperazin-1-yl)-6-(2,2,2-trifluoroethoxy)-3-pyridinecarboxamide] was tested, and the “% increase of ABCA1 at 3 μM” value (ABCA1 protein) was >45%@ 3 μM, the inhibition at 10 µM (human CB1 receptor) was 14% and the inhibition at 10 µM (human CB2 receptor) was -18%.

In the case of O=C(NN1CCC(CO)CC1)c1cnc(OCC(F)(F)F)c(-c2ccc(Cl)cc2)c1 [Example 26, 5-(4-chlorophenyl)-N-(4-(hydroxymethyl)piperidin-1-yl)-6-(2,2,2-trifluoroethoxy)-3-pyridinecarboxamide], the “% increase of ABCA1 at 3 μM” value (ABCA1 protein) is reported as >45%@ 3 μM, the inhibition at 10 µM (human CB1 receptor) is reported as 37% and the inhibition at 10 µM (human CB2 receptor) is reported as -17%.

For CN1CCN(NC(=O)c2cnc(OCC(F)(F)F)c(-c3ccc(Cl)cc3)c2)CC1=O [Example 27, 5-(4-chlorophenyl)-N-(4-methyl-3-oxopiperazin-1-yl)-6-(2,2,2-trifluoroethoxy)-3-pyridinecarboxamide], the EC50 (ABCA1 protein) was 2.39 µM, the inhibition at 10 µM (human CB1 receptor) was 25% and the inhibition at 10 µM (human CB2 receptor) was -11%.

In the case of CN(CCCO)NC(=O)c1cnc(OCC(F)(F)F)c(-c2ccc(Cl)cc2)c1 [Example 28, 5-(4-chlorophenyl)-N′-(3-hydroxypropyl)-N′-methyl-6-(2,2,2-trifluoroethoxy)-3-pyridinecarboxylic acid hydrazide], the “% increase of ABCA1 at 3 μM” value (ABCA1 protein) is reported as >45%@ 3 μM, the inhibition at 10 µM (human CB1 receptor) is reported as 46% and the inhibition at 10 µM (human CB2 receptor) is reported as -9%.

For O=C(NN1CC(O)C1)c1cnc(OCC(F)(F)F)c(-c2ccc(Cl)cc2)c1 [Example 29, 5-(4-chlorophenyl)-N-(3-hydroxyazetidin-1-yl)-6-(2,2,2-trifluoroethoxy)-3-pyridinecarboxamide], the “% increase of ABCA1 at 3 μM” value (ABCA1 protein) was >45%@ 3 μM, the inhibition at 10 µM (human CB1 receptor) was 44% and the inhibition at 10 µM (human CB2 receptor) was -10%.

In the case of CN(NC(=O)c1cnc(OCC(F)(F)F)c(C2CC2)c1)c1ccccc1 [Example 30, 5-cyclopropyl-6-(2,2,2-trifluoro-ethoxy)-nicotinic acid N′-methyl-N′-phenyl-hydrazide], the “% increase of ABCA1 at 3 μM” value (ABCA1 protein) is reported as >45%@ 3 μM, the inhibition at 10 µM (human CB1 receptor) is reported as 24% and the inhibition at 10 µM (human CB2 receptor) is reported as 13%.

With O=C(NN1CCS(=O)(=O)CC1)c1cnc(OCC(F)(F)F)c(C2CC2)c1 [Example 31, 5-cyclopropyl-N-(1,1-dioxo-1λ6-thiomorpholin-4-yl)-6-(2,2,2-trifluoro-ethoxy)-nicotinamide] the “% increase of ABCA1 at 3 μM” value (ABCA1 protein) was >45%@ 3 μM, the inhibition at 10 µM (human CB1 receptor) was -2% and the inhibition at 10 µM (human CB2 receptor) was -14%.

In the case of O=C(NN1CCOCC1)c1cnc(OCC(F)(F)F)c(C2CC2)c1 [Example 32, 5-cyclopropyl-N-morpholin-4-yl-6-(2,2,2-trifluoro-ethoxy)-nicotinamide], the EC50 (ABCA1 protein) is reported as 1.77 µM, the inhibition at 10 µM (human CB1 receptor) is reported as 14% and the inhibition at 10 µM (human CB2 receptor) is reported as -14%.

Molecule COC[C@@H]1CCCN1NC(=O)c1cnc(OCC(F)(F)F)c(C2CC2)c1 [Example 33, 5-cyclopropyl-N—((S)-2-methoxymethyl-pyrrolidin-1-yl)-6-(2,2,2-trifluoro-ethoxy)-nicotinamide] has an EC50 (ABCA1 protein) of 0.68 µM, an inhibition at 10 µM (human CB1 receptor) of 21% and an inhibition at 10 µM (human CB2 receptor) of 3%.

CN(NC(=O)c1cnc(OCC(F)(F)F)c(C2CC2)c1)c1ccc(F)cc1 [Example 34, 5-cyclopropyl-6-(2,2,2-trifluoro-ethoxy)-nicotinic acid N′-(4-fluoro-phenyl)-N′-methyl-hydrazide] showed an EC50 (ABCA1 protein) of 0.83 µM, an inhibition at 10 µM (human CB1 receptor) of 15% and an inhibition at 10 µM (human CB2 receptor) of 8%.

Work on CN(NC(=O)c1cnc(OCC(F)(F)F)c(C2CCOCC2)c1)c1ccccc1 [Example 35, 5-(tetrahydro-pyran-4-yl)-6-(2,2,2-trifluoro-ethoxy)-nicotinic acid N′-methyl-N′-phenyl-hydrazide] yielded an EC50 (ABCA1 protein) of 2.35 µM, an inhibition at 10 µM (human CB1 receptor) of 34% and an inhibition at 10 µM (human CB2 receptor) of 25%.

N#Cc1ccc(-c2cc(C(=O)NN3CCC(O)CC3)cnc2OCC(F)(F)F)cc1 [Example 36, 5-(4-cyano-phenyl)-N-(4-hydroxy-piperidin-1-yl)-6-(2,2,2-trifluoro-ethoxy)-nicotinamide] showed an EC50 (ABCA1 protein) of 1.86 µM, an inhibition at 10 µM (human CB1 receptor) of 10% and an inhibition at 10 µM (human CB2 receptor) of -4%.

N#Cc1ccc(-c2cc(C(=O)NN3CCOCC3)cnc2OCC(F)(F)F)cc1 [Example 37, 5-(4-cyano-phenyl)-N-morpholin-4-yl-6-(2,2,2-trifluoro-ethoxy)-nicotinamide] was tested, and the EC50 (ABCA1 protein) was 1.32 µM, the inhibition at 10 µM (human CB1 receptor) was 47% and the inhibition at 10 µM (human CB2 receptor) was -8%.

With N#Cc1ccc(-c2cc(C(=O)NN3CCC(CCO)CC3)cnc2OCC(F)(F)F)cc1 [Example 38, 5-(4-cyano-phenyl)-N-[4-(2-hydroxy-ethyl)-piperidin-1-yl]-6-(2,2,2-trifluoro-ethoxy)-nicotinamide] the EC50 (ABCA1 protein) was 0.15 µM, the inhibition at 10 µM (human CB1 receptor) was 37% and the inhibition at 10 µM (human CB2 receptor) was -6%.

In the case of CC(C)(C)OC(=O)N1CCC(c2cc(C(=O)NN3CCC(CCO)CC3)cnc2OCC(F)(F)F)CC1 [Example 39, 5-[4-(2-hydroxy-ethyl)-piperidin-1-ylcarbamoyl]-2-(2,2,2-trifluoro-ethoxy)-3′,4′,5′,6′-tetrahydro-2′H-[3,4′]bipyridinyl-1′-carboxylic acid tert-butyl ester], the EC50 (ABCA1 protein) is reported as 1.8 µM, the inhibition at 10 µM (human CB1 receptor) is reported as -3% and the inhibition at 10 µM (human CB2 receptor) is reported as -5%.

Molecule CN(NC(=O)c1cnc(OCC(F)(F)F)c(C2CCN(C(=O)OC(C)(C)C)CC2)c1)c1ccc(F)cc1 [Example 40, 5-[N′-(4-fluoro-phenyl)-N′-methyl-hydrazinocarbonyl]-2-(2,2,2-trifluoro-ethoxy)-3′,4′,5′,6′-tetrahydro-2′H-[3,4′]bipyridinyl-1′-carboxylic acid tert-butyl ester] has an EC50 (ABCA1 protein) of 0.68 µM, an inhibition at 10 µM (human CB1 receptor) of 50% and an inhibition at 10 µM (human CB2 receptor) of 3%.
